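The compound was tested at five concentrations on cells cultured in 96-well plates, with a 48-hour exposure period. Here, GI50 denotes the concentration required for 50% inhibition of growth.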 Activity calls are given as the source filed them. Cut-off read from the data, not from the text of the source: active = GI50 up to about 1.1 µM and inactive = higher.
Assays:
Assay in all cases: NCI tumour cell line growth inhibition, 48 h
[1] = tested on: UO-31
[2] = tested on: SNB-19
[3] = tested on: TK-10
[4] = tested on: OVCAR-3
[5] = tested on: CCRF-CEM
[6] = tested on: LOX IMVI
[7] = tested on: HCT-116
[8] = tested on: UACC-62
[9] = tested on: SF-295
[10] = tested on: SW-620
[11] = tested on: SK-OV-3
[12] = tested on: HCT-15
[13] = tested on: A498
[14] = tested on: HCC 2998
[15] = tested on: Malme-3M
[16] = tested on: MOLT-4
[17] = tested on: NCI-H522
[18] = tested on: CAKI-1
[19] = tested on: MCF7

**Q.** What does the source list for `CN1C(=O)CC2(C)c3cc(C=O)ccc3N(C)C12` (stereo not given)?
**A.** GI50 [1]: > 100 µM (inactive); GI50 [2]: > 100 µM (inactive); GI50 [3]: > 100 µM (inactive); GI50 [4]: > 100 µM (inactive); GI50 [5]: > 100 µM (inactive); GI50 [6]: > 100 µM (inactive); GI50 [7]: > 100 µM (inactive); GI50 [8]: > 100 µM (inactive); GI50 [9]: > 100 µM (inactive); GI50 [10]: > 100 µM (inactive); GI50 [11]: > 100 µM (inactive); GI50 [12]: > 100 µM; GI50 [13]: > 100 µM (inactive); GI50 [14]: > 100 µM (inactive); GI50 [15]: > 100 µM (inactive); GI50 [16]: > 100 µM (inactive); GI50 [17]: > 100 µM (inactive)

**Q.** Which results are given for `COP(=O)(OC)C(=O)N1N(c2ccc([N+](=O)[O-])cc2)C(=O)C(C)NC1(NNc1ccc([N+](=O)[O-])cc1)P(=O)(OC)OC` (stereo not given)?
**A.** GI50 [1]: > 100 µM (inactive); GI50 [2]: > 100 µM (inactive); GI50 [3]: > 100 µM (inactive); GI50 [4]: > 100 µM (inactive); GI50 [5]: > 100 µM (inactive); GI50 [6]: > 100 µM (inactive); GI50 [7]: > 100 µM (inactive); GI50 [8]: > 100 µM (inactive); GI50 [10]: > 100 µM (inactive); GI50 [12]: > 100 µM; GI50 [13]: > 100 µM (inactive); GI50 [14]: > 100 µM (inactive); GI50 [15]: > 100 µM (inactive); GI50 [16]: > 100 µM (inactive); GI50 [17]: > 100 µM (inactive); GI50 [18]: > 100 µM (inactive)

**Q.** For `COC(=O)C1CCC(N2C(=O)CCC2C(=O)OC)=N1` (stereo not given), which GI50 [1] is on record?
**A.** > 100 µM (inactive)

**Q.** What about the GI50 [2] of the same compound?
**A.** > 100 µM (inactive)

**Q.** What about the GI50 [3] of the same compound?
**A.** > 100 µM (inactive)

**Q.** And the GI50 [4]?
**A.** > 100 µM (inactive)

**Q.** And the GI50 [5]?
**A.** > 100 µM (inactive)

**Q.** And the GI50 [6]?
**A.** > 100 µM (inactive)

**Q.** And the GI50 [7]?
**A.** > 100 µM (inactive)

**Q.** And the GI50 [8]?
**A.** > 100 µM (inactive)

**Q.** What about the GI50 [9] of the same compound?
**A.** > 100 µM (inactive)

**Q.** And the GI50 [10]?
**A.** > 100 µM (inactive)

**Q.** And the GI50 [11]?
**A.** > 100 µM (inactive)

**Q.** What about the GI50 [12] of the same compound?
**A.** > 100 µM

**Q.** And the GI50 [13]?
**A.** > 100 µM (inactive)

**Q.** What about the GI50 [14] of the same compound?
**A.** > 100 µM (inactive)

**Q.** And the GI50 [15]?
**A.** > 100 µM (inactive)

**Q.** What about the GI50 [16] of the same compound?
**A.** > 100 µM (inactive)

**Q.** What about the GI50 [17] of the same compound?
**A.** > 100 µM (inactive)

**Q.** And the GI50 [18]?
**A.** > 100 µM (inactive)

**Q.** Which results are given for `COC(=O)C(=O)C(C(=O)C(=O)Nc1ccc(Cl)cc1C)c1nc2ccc(C(=O)c3ccccc3)cc2nc1O` (stereo not given)?
**A.** GI50 [1]: 49.1 µM (inactive); GI50 [2]: > 100 µM (inactive); GI50 [3]: > 100 µM (inactive); GI50 [4]: > 100 µM (inactive); GI50 [5]: 50.6 µM (inactive); GI50 [6]: > 100 µM (inactive); GI50 [7]: > 100 µM (inactive); GI50 [8]: 61.9 µM (inactive); GI50 [9]: > 100 µM (inactive); GI50 [10]: > 100 µM (inactive); GI50 [11]: > 100 µM (inactive); GI50 [12]: > 100 µM; GI50 [13]: 21.6 µM (inactive); GI50 [14]: 98.9 µM (inactive); GI50 [15]: > 100 µM (inactive); GI50 [16]: 51.1 µM (inactive); GI50 [17]: 37 µM (inactive); GI50 [18]: 68.4 µM (inactive)

**Q.** How did the GI50 [1] turn out when `CCOC(=O)NC(=O)c1cn(CCCCCOC(=O)NCCCCCCNC(=O)OCCCCCn2cc(C(=O)NC(=O)OCC)c(=O)[nH]c2=O)c(=O)[nH]c1=O` was run?
**A.** > 100 µM (inactive)

**Q.** And the GI50 [2]?
**A.** > 100 µM (inactive)

**Q.** What about the GI50 [4] of the same compound?
**A.** > 100 µM (inactive)

**Q.** What about the GI50 [5] of the same compound?
**A.** > 100 µM (inactive)

**Q.** What about the GI50 [6] of the same compound?
**A.** > 100 µM (inactive)

**Q.** What about the GI50 [7] of the same compound?
**A.** > 100 µM (inactive)

**Q.** What about the GI50 [8] of the same compound?
**A.** > 100 µM (inactive)

**Q.** What about the GI50 [9] of the same compound?
**A.** > 100 µM (inactive)

**Q.** And the GI50 [10]?
**A.** > 100 µM (inactive)

**Q.** And the GI50 [11]?
**A.** > 100 µM (inactive)

**Q.** What about the GI50 [12] of the same compound?
**A.** > 100 µM

**Q.** What about the GI50 [13] of the same compound?
**A.** > 100 µM (inactive)

**Q.** What about the GI50 [14] of the same compound?
**A.** > 100 µM (inactive)

**Q.** And the GI50 [15]?
**A.** > 100 µM (inactive)

**Q.** What about the GI50 [16] of the same compound?
**A.** > 100 µM (inactive)

**Q.** What about the GI50 [17] of the same compound?
**A.** > 100 µM (inactive)

**Q.** And the GI50 [18]?
**A.** > 100 µM (inactive)

**Q.** What does the source list for `CC(=O)c1ccc(NC(=O)C(=O)CC(=O)c2sc(-n3nc(-c4ccccc4)cc3-c3ccccc3)nc2C)cc1`?
**A.** GI50 [1]: > 100 µM (inactive); GI50 [2]: > 100 µM (inactive); GI50 [3]: > 100 µM (inactive); GI50 [4]: > 100 µM (inactive); GI50 [5]: > 100 µM (inactive); GI50 [6]: > 100 µM (inactive); GI50 [7]: > 100 µM (inactive); GI50 [8]: > 100 µM (inactive); GI50 [9]: > 100 µM (inactive); GI50 [10]: > 100 µM (inactive); GI50 [11]: > 100 µM (inactive); GI50 [12]: > 100 µM; GI50 [13]: > 100 µM (inactive); GI50 [14]: > 100 µM (inactive); GI50 [15]: > 100 µM (inactive); GI50 [16]: > 100 µM (inactive); GI50 [17]: > 100 µM (inactive); GI50 [18]: > 100 µM (inactive)

**Q.** Which GI50 [1] does the source give for `CCOC(=O)C(=Cc1ccc(Oc2ccccc2)cc1)C(=O)OCC` here?
**A.** 4.35 µM (inactive)

**Q.** What about the GI50 [2] of the same compound?
**A.** 5.73 µM (inactive)

**Q.** What about the GI50 [3] of the same compound?
**A.** 7.74 µM (inactive)

**Q.** What about the GI50 [4] of the same compound?
**A.** 6.38 µM (inactive)

**Q.** And the GI50 [5]?
**A.** 2.03 µM (inactive)

**Q.** What about the GI50 [6] of the same compound?
**A.** 1.47 µM (inactive)

**Q.** What about the GI50 [7] of the same compound?
**A.** 2.31 µM (inactive)

**Q.** And the GI50 [8]?
**A.** 1.63 µM (inactive)

**Q.** What about the GI50 [9] of the same compound?
**A.** 5.13 µM (inactive)

**Q.** And the GI50 [10]?
**A.** 2.22 µM (inactive)

**Q.** And the GI50 [11]?
**A.** 7.05 µM (inactive)

**Q.** What about the GI50 [12] of the same compound?
**A.** 2.44 µM

**Q.** What about the GI50 [13] of the same compound?
**A.** 15.3 µM (inactive)

**Q.** What about the GI50 [14] of the same compound?
**A.** 10.6 µM (inactive)

**Q.** And the GI50 [15]?
**A.** 2.56 µM (inactive)

**Q.** What about the GI50 [19] of the same compound?
**A.** 4.09 µM (inactive)

**Q.** And the GI50 [16]?
**A.** 1.92 µM (inactive)

**Q.** And the GI50 [17]?
**A.** 4.22 µM (inactive)

**Q.** What about the GI50 [18] of the same compound?
**A.** 14.1 µM (inactive)

**Q.** For `O=C1COc2cccnc2N1CCCCO`, which GI50 [1] is on record?
**A.** > 100 µM (inactive)

**Q.** What about the GI50 [2] of the same compound?
**A.** > 100 µM (inactive)

**Q.** And the GI50 [3]?
**A.** > 100 µM (inactive)

**Q.** And the GI50 [4]?
**A.** > 100 µM (inactive)

**Q.** And the GI50 [5]?
**A.** > 100 µM (inactive)

**Q.** And the GI50 [6]?
**A.** > 100 µM (inactive)

**Q.** What about the GI50 [7] of the same compound?
**A.** > 100 µM (inactive)

**Q.** And the GI50 [8]?
**A.** > 100 µM (inactive)

**Q.** What about the GI50 [9] of the same compound?
**A.** > 100 µM (inactive)

**Q.** And the GI50 [10]?
**A.** > 100 µM (inactive)

**Q.** And the GI50 [11]?
**A.** > 100 µM (inactive)

**Q.** And the GI50 [12]?
**A.** > 100 µM

**Q.** What about the GI50 [13] of the same compound?
**A.** > 100 µM (inactive)

**Q.** And the GI50 [19]?
**A.** > 100 µM (inactive)

**Q.** And the GI50 [16]?
**A.** > 100 µM (inactive)

**Q.** What about the GI50 [17] of the same compound?
**A.** > 100 µM (inactive)

**Q.** What about the GI50 [18] of the same compound?
**A.** > 100 µM (inactive)
